# Values of other authors, collected in patent US20120245518A1, “PHARMACEUTICAL COMPOSITION FOR THE TREATMENT OF BLADDER DISORDERS” (Ritcher Gedeon NYRT., priority 2009, published 2012).
# Tested on: matrix metalloproteinases, particularly the MMP-9
substance,measurement,value
sodium hyaluronate,"inhibitory effect on matrix metalloproteinases, particularly MMP-9",does not show the latter effect
